This is an account of results in US8299056B2 (Signal Pharmaceuticals, LLC, priority 2008, dated 2012).

pIC50: −log10 of the molar value.

The first assay has as its target T1, Syk (Homo sapiens, UniProt P43405).
T1 construct: purchased Carna Biosciences
Kind of assay: Syk HTRF assay. In kind it is biochemical. To be noted: IC50 activity level, read-out: Activity Level. An outline of the steps: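 Read-out is the 665 nm/615 nm time-resolved fluorescence ratio after EDTA stop and Eu-anti-phosphotyrosine plus streptavidin-DyLight 647 detection. Reaction ran 1 h at room temperature with start mix of 87.5 μM ATP and 80 nM substrate peptide in pH 7.6 HEPES/MgCl2 buffer.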
In general terms: Time-resolved FRET reads energy transfer from a long-lived donor to a nearby acceptor.
As for `OC1(Cc2cccc3nc(Nc4ccc(F)cc4)nn23)CCNCC1` [Example 430, 4-((2-(4-fluorophenylamino)-[1,2,4]triazolo[1,5-a]pyridin-5-yl)methyl)piperidin-4-ol], the pIC50 is 5.00 to 6.00. Consider `Cc1n[nH]c2cc(Nc3nc4cccc(C(F)(F)C5COCCO5)n4n3)ccc12` (stereo not shown) [Example 563, 5-((1,4-dioxan-2-yl)difluoromethyl)-N-(3-methyl-1H-indazol-6-yl)-[1,2,4]triazolo[1,5-a]pyridin-2-amine], for which the pIC50 is 6.60 to 11.30. `CC(O)c1nc2ccc(-c3cccc4nc(Nc5ccc(C(F)(F)F)cc5)nn34)cc2[nH]1` (stereo not shown) [Example 402, 1-(6-(2-(4-(trifluoromethyl)phenylamino)-[1,2,4]triazolo[1,5-a]pyridin-5-yl)-1H-benzo[d]imidazol-2-yl)ethanol]: the pIC50 is 6.60 to 11.30. Take `c1ccc(Nc2nc3cccc(-c4ccc5cn[nH]c5c4)n3n2)cc1` [Example 485, 5-(1H-indazol-6-yl)-N-phenyl-[1,2,4]triazolo[1,5-a]pyridin-2-amine]: the pIC50 was 6.60 to 11.30. As for `Cc1cc(Nc2nc3cccc(NC4CCOCC4)n3n2)cnc1N1CCOCC1` [Example 547, N^2-(5-methyl-6-morpholinopyridin-3-yl)-N^5-(tetrahydro-2H-pyran-4-yl)-[1,2,4]triazolo[1,5-a]pyrridine-2,5-diamine], the pIC50 was 6.00 to 6.30.

Regarding `NCCCCc1cccc2nc(Nc3ccccc3)nn12` [Example 505, 5-(4-aminobutyl)-N-phenyl-[1,2,4]triazolo[1,5-a]pyridin-2-amine], the pIC50 was 6.00 to 6.30.

As for `Nc1n[nH]c2ccc(-c3cccc4nc(Nc5ccccc5)nn34)cc12` [Example 511, 5-(3-amino-1H-indazol-5-yl)-N-phenyl-[1,2,4]triazolo[1,5-a]pyridin-2-amine], the pIC50 was 6.30 to 6.60. Turning to `Cc1cc(Nc2nc3cccc(N[C@H]4CC[C@@H](O)CC4)n3n2)c2c(c1)N(C)C(=O)C2` [Example 554, cis-4-(5-(4-hydroxycyclohexylamino)-[1,2,4]triazolo[1,5-a]pyridin-2-ylamino)-1,6-dimethylindolin-2-one], the pIC50 was 6.00 to 6.30. On the same count and under the same terms, the same measure for `OC(c1cccc2nc(Nc3ccccc3)nn12)C1CCNCC1` (stereo not shown) [Example 502, (2-(phenylamino)-[1,2,4]triazolo[1,5-a]pyridin-5-yl)(piperidin-4-yl)methanol]: 6.30 to 6.60; for `NCCn1cnc2cc(-c3cccc4nc(Nc5ccccc5)nn34)ccc21` [Example 490, 5-(1-(2-aminoethyl)-1H-benzo[d]imidazol-5-yl)-N-phenyl-[1,2,4]triazolo[1,5-a]pyridin-2-amine]: 5.00 to 6.00.

With `Fc1ccc(Nc2nc3cccc(N[C@H]4CCCNC4)n3n2)cc1` [Example 465, (S)-N^2-(4-fluorophenyl)-N^5-(piperidin-3-yl)-[1,2,4]triazolo[1,5-a]pyridine-2,5-diamine], the pIC50 was 6.60 to 11.30. On to `c1ccc(Nc2nc3cccc(N[C@@H]4CCNC4)n3n2)cc1` [Example 474, (R)-N^2-phenyl-N^5-(pyrrolidin-3-yl)-[1,2,4]triazolo[1,5-a]pyridin-2,5-diamine], for which the pIC50 is 6.00 to 6.30. On to `CN(c1cccc2nc(Nc3ccc4c(cnn4C)c3)nn12)C1CCOCC1` [Example 542, N^5-methyl-N^2-(1-methyl-1H-indazol-5-yl)-N^5-(tetrahydro-2H-pyran-4-yl)-[1,2,4]triazolo[1,5-a]pyridine-2,5-diamine], for which the pIC50 was 6.60 to 11.30. In the case of `Oc1cc(Nc2cccc3nc(Nc4ccc(C(F)(F)F)cc4)nn23)ccn1` [Example 415, 4-(2-(4-(trifluoromethyl)phenylamino)-[1,2,4]triazolo[1,5-a]pyridin-5-ylamino)pyridin-2-ol], the pIC50 was 5.00 to 6.00. The same measure, in the same setting: next, `c1cc(NC2CCCNC2)n2nc(Nc3ccc(N4CCOCC4)nc3)nc2c1` (stereo in doubt) [Example 411, (S)-N^2-(6-morpholinopyridin-3-yl)-N^5-(piperidin-3-yl)-[1,2,4]triazolo[1,5-a]pyridine-2,5-diamine]: 6.60 to 11.30.

The assay is the same for the next values; noted with them: activity levels A-D, read-out: Activity Level (IC50 in the Syk HTRF assay).
On to `CNC(=O)c1ccc(Nc2nc3cccc(CC4CCC(O)C4)n3n2)cc1` (single isomer, unassigned; diastereomer 1) [Example 232, 4-(5-((3-hydroxycyclopentyl)methyl)-[1,2,4]triazolo[1,5-a]pyridin-2-ylamino)-N-methylbenzamide (diastereomer 1)], for which the pIC50 was 5.00 to 6.00. In the case of `O=C1NCCCN1Cc1cccc2nc(Nc3ccc(C(F)(F)F)cc3)nn12` [Example 286, 1-((2-(4-(trifluoromethyl)phenylamino)-[1,2,4]triazolo[1,5-a]pyridin-5-yl)methyl)tetrahydropyrimidin-2(1H)-one], the pIC50 was 5.00 to 6.00. For the compound `CC(C)(O)c1nc2ccc(-c3cccc4nc(Nc5ccc(C(F)(F)F)cc5)nn34)cc2[nH]1` [Example 379, 2-(6-(2-(4-(trifluoromethyl)phenylamino)-[1,2,4]triazolo[1,5-a]pyridin-5-yl)-1H-benzo[d]imidazol-2-yl)propan-2-ol], the pIC50 is 6.30 to 6.60. Regarding `CNC(=O)c1ccc(Nc2nc3cccc(CC4CCNCC4)n3n2)cc1` [Example 276], the pIC50 is 6.60 to 11.30. `OCCOc1cc(Nc2nc3cccc(N[C@H]4CC[C@@H](O)CC4)n3n2)ccn1` [Example 277, cis-4-(2-(2-(2-hydroxyethoxy)pyridin-4-ylamino)-[1,2,4]triazolo[1,5-a]pyridin-5-ylamino)cyclohexanol]: the pIC50 is 6.60 to 11.30.

For the compound `OC[C@@H]1CCN(c2cccc3nc(Nc4ccc(C(F)(F)F)cc4)nn23)C1` [Example 326, (R)-(1-(2-(4-(trifluoromethyl)phenylamino)-[1,2,4]triazolo[1,5-a]pyridin-5-yl)pyrrolidin-3-yl)methanol], the pIC50 was 6.30 to 6.60. For `OC1CN(c2cccc3nc(Nc4ccc(C(F)(F)F)cc4)nn23)C1` [Example 287, 1-(2-(4-(trifluoromethyl)phenylamino)-[1,2,4]triazolo[1,5-a]pyridin-5-yl)azetidin-3-ol], the pIC50 was 6.60 to 11.30. On to `CCc1n[nH]c2cc(Nc3nc4cccc(N[C@H]5CC[C@@H](O)CC5)n4n3)ccc12` [Example 245, cis-4-(2-(3-ethyl-1H-indazol-6-ylamino)-[1,2,4]triazolo[1,5-a]pyridin-5-ylamino)cyclohexanol], for which the pIC50 was 6.60 to 11.30.

On to `O[C@H]1CC[C@@H](Nc2cccc3nc(Nc4ccccc4F)nn23)CC1` [Example 357, cis-4-(2-(2-fluorophenylamino)-[1,2,4]triazolo[1,5-a]pyridin-5-ylamino)cyclohexanol], for which the pIC50 is 5.00 to 6.00. On the same count and under the same terms, next, `O[C@H]1CC[C@@H](Nc2cccc3nc(Nc4cccc(Cl)c4)nn23)CC1` [Example 354, cis-4-(2-(3-chlorophenylamino)-[1,2,4]triazolo[1,5-a]pyridin-5-ylamino)cyclohexanol]: 6.60 to 11.30; `OCCOc1cccc2nc(Nc3ccc(C(F)(F)F)cc3)nn12` [Example 315, 2-(2-(4-(trifluoromethyl)phenylamino)-[1,2,4]triazolo[1,5-a]pyridin-5-yloxy)ethanol]: 5.00 to 6.00; `O=C1c2cc(Nc3nc4cccc(N[C@H]5CC[C@@H](O)CC5)n4n3)ccc2CN1CCO` [Example 206, cis-6-(5-(4-hydroxycyclohexylamino)-[1,2,4]triazolo[1,5-a]pyridin-2-ylamino)-2-(2-hydroxyethyl)isoindolin-1-one]: 5.00 to 6.00. For the compound `O[C@H]1CC[C@@H](Nc2cccc3nc(Nc4ccc(N5CCOCC5)nc4)nn23)CC1` [Example 313, cis-4-(2-(6-morpholinopyridin-3-ylamino)-[1,2,4]triazolo[1,5-a]pyridin-5-ylamino)cyclohexanol], the pIC50 was 6.60 to 11.30. For `O[C@H]1CC[C@@H](CNc2cccc3nc(Nc4ccc(C(F)(F)F)cc4)nn23)CC1` [Example 382, cis-4-((2-(4-(trifluoromethyl)phenylamino)-[1,2,4]triazolo[1,5-a]pyridin-5-ylamino)methyl)cyclohexanol], the pIC50 was 5.00 to 6.00. Same read-out and setting: next, `CNC(=O)c1ccc(Nc2nc3cccc(O[C@H]4CC[C@@H](N)CC4)n3n2)cc1` [Example 283, cis-4-(5-(4-aminocyclohexyloxy)-[1,2,4]triazolo[1,5-a]pyridin-2-ylamino)-N-methylbenzamide]: 5.00 to 6.00; `Oc1cc(Nc2nc3cccc(N[C@H]4CC[C@@H](O)CC4)n3n2)ccn1` [Example 331, cis-4-(5-(4-hydroxycyclohexylamino)-[1,2,4]triazolo[1,5-a]pyridin-2-ylamino)pyridin-2-ol]: 5.00 to 6.00.

Staying with this assay, now noted: read-out: Activity Level (Syk HTRF assay IC50).
As for `CC(c1cccc2nc(Nc3ccc4c(c3)NC(=O)C4(C)C)nn12)C1CCOCC1` (stereo not shown) [Example 159, 3,3-dimethyl-6-(5-(1-(tetrahydro-2H-pyran-4-yl)ethyl)-[1,2,4]triazolo[1,5-a]pyridin-2-ylamino)indolin-2-one], the pIC50 was 6.60 to 11.30.

With `Cc1n[nH]c2cc(Nc3nc4cccc(N(C)C5CCOCC5)n4n3)ccc12` [Example 189, N^5-methyl-N^2-(3-methyl-1H-indazol-6-yl)-N^5-(tetrahydro-2H-pyran-4-yl)-[1,2,4]triazolo[1,5-a]pyridin-2,5-diamine], the pIC50 is 6.60 to 11.30. In the case of `CNC(=O)c1ccc(Nc2nc3cccc(-c4cccc(CCN)c4)n3n2)cc1` [compound 11, 4-(5-(3-(2-aminoethyl)phenyl)-[1,2,4]triazolo[1,5-a]pyridin-2-ylamino)-N-methylbenzamide], the pIC50 was 6.30 to 6.60. Turning to `O=S1(=O)NCc2ccc(Nc3nc4cccc(-c5ccccc5)n4n3)cc21` [compound 37], the pIC50 is 6.60 to 11.30. Take `c1cc(NC2CCOCC2)n2nc(Nc3cnc4cn[nH]c4c3)nc2c1` [compound 111]: the pIC50 was 5.00 to 6.00.

Take `CN(C)Cc1nc2ccc(Nc3nc4cccc(-c5ccccc5)n4n3)cc2[nH]1` [compound 31, N-(2-((dimethylamino)methyl)-1H-benzo[d]imidazol-6-yl)-5-phenyl-[1,2,4]triazolo[1,5-a]pyridin-2-amine]: the pIC50 is 6.60 to 11.30.
